Results: US20060287316A1, “METHOD FOR IMPROVING PHARMACOKINETICS OF PROTEASE INHIBITORS AND PROTEASE INHIBITOR PRECURSORS” (priority 2005, published 2006)

Experiment: Pharmacokinetics of PL-100 and PL-461 in rats
Format: in vivo, Sprague Dawley rats (Rattus norvegicus)
Details: 5 mg/kg i.v., female rats
Experimental: Animal tested are Sprague Dawley rats (species Rattus norvegicus) of 6-7 weeks old at the start of dosing and were obtained from Charles River (Montreal, Canada). The study usually comprises about 6 animals per groups. […] The rats were fasted 3 h. before dosing and 3 h. after dosing. The formulations are prepared as indicated below. The solutions are stable at room temperature over a week and are covered with aluminum foil to avoid lights. […] The dosing volume for all formulations is 2 mL per kg body weight. Blood sample was collected at 15 min, 30 min, 45 min, 1 […] after the dosing. Blood samples were centrifuged to separate the plasma and separated plasma samples were placed into cryovials and frozen at -80° C. for further analysis. Plasma samples together with standards and quality control samples were treated by protein precipitation and then analyzed by HPLC-MS. […] The PK profile was obtained by administration of the test drugs; PL-100 and PL-461 in rats. […] The pharmacokinetic parameters of PL-100 and PL-461 in rats** was compared.

[1] = Sprague Dawley, rat, plasma, iv

COC(=O)N[C@H](C(=O)NCCCC[C@@H](CO)N(CC(C)C)S(=O)(=O)c1ccc(N)cc1)C(c1ccccc1)c1ccccc1 [PL-100, (1S,5S)-(1-{5-[(4-amino-benzenesulfonyl)-isobutyl-amino]-6-hydroxy-hexylcarbamoyl}-2,2-diphenyl-ethyl)-carbamic acid methyl ester]
Cl_F: 58.3 mL/min/kg
Tlast: 6 h
Vz_F: 6.1 L/kg
λz: 0.52 h⁻¹
concentration at 6 hr (Sprague Dawley, rat, plasma, intravenous, read-out: Clast): 44 ng/mL
AUC(0-inf) [1]: 1430 ng·h/mL
AUC(0-t) [1]: 1370 ng·h/mL
Cmax [1]: 1800 ng/mL
Tmax [1]: 6 min
half-life (Sprague Dawley, rat, plasma, iv, read-out: T½ (converted)): 72 min
